According to ChEMBL document CHEMBL1201862, “PubChem BioAssay data set” (2004):
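Results reflect a 48-hour exposure of cells in 96-well plates to compound at five concentrations. GI50 = concentration required for 50% inhibition of growth.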 Calls of active or inactive are those of the source. Rule as the data show it: active = GI50 up to about 1.1 µM and inactive = higher.

Experiments:
Assay in all cases: DTP human tumour cell line panel, 48 h
786-0 = system: 786-0
A549 = system: A549
ACHN = system: ACHN
CAKI-1 = system: CAKI-1
CCRF-CEM = system: CCRF-CEM
COLO 205 = system: COLO 205
DMS-114 = system: DMS-114
DMS-273 = system: DMS-273
EKVX = system: EKVX
HCC 2998 = system: HCC 2998
HCT-15 = system: HCT-15
HL-60 = system: HL-60
HOP-18 = system: HOP-18
HOP-62 = system: HOP-62
HOP-92 = system: HOP-92
HT-29 = system: HT-29
IGROV-1 = system: IGROV-1
K562 = system: K562
KM-20L2 = system: KM-20L2
KM12 = system: KM12
LOX IMVI = system: LOX IMVI
LXFL 529 = system: LXFL 529
M14 = system: M14
M19-MEL = system: M19-MEL
MOLT-4 = system: MOLT-4
Malme-3M = system: Malme-3M
NCI-H23 = system: NCI-H23
NCI-H460 = system: NCI-H460
NCI-H522 = system: NCI-H522
OVCAR-3 = system: OVCAR-3
OVCAR-4 = system: OVCAR-4
OVCAR-5 = system: OVCAR-5
OVCAR-8 = system: OVCAR-8
RPMI-8226 = system: RPMI-8226
RXF 393 = system: RXF 393
SF-268 = system: SF-268
SF-295 = system: SF-295
SF-539 = system: SF-539
SK-MEL-28 = system: SK-MEL-28
SK-MEL-2 = system: SK-MEL-2
SK-MEL-5 = system: SK-MEL-5
SK-OV-3 = system: SK-OV-3
SN12C = system: SN12C
SNB-19 = system: SNB-19
SNB-75 = system: SNB-75
SW-620 = system: SW-620
TK-10 = system: TK-10
U-251 = system: U-251
UACC-257 = system: UACC-257
UACC-62 = system: UACC-62
UO-31 = system: UO-31
A498 = system: A498
DLD-1 = system: DLD-1
HCT-116 = system: HCT-116
NCI-H226 = system: NCI-H226
SNB-78 = system: SNB-78
SR = system: SR
XF498 = system: XF498

## OC1c2ccccc2C2(O)C1C(c1ccccc1)C(c1ccccc1)C2(O)c1ccccc1 (stereo not given)
786-0
  GI50: 11.5 µM (inactive)
A549
  GI50: 11.4 µM (inactive)
ACHN
  GI50: 5.82 µM (inactive)
CAKI-1
  GI50: 15.5 µM (inactive)
CCRF-CEM
  GI50: 8.18 µM (inactive)
COLO 205
  GI50: 14 µM (inactive)
DMS-114
  GI50: 13.6 µM (inactive)
DMS-273
  GI50: 7.48 µM (inactive)
EKVX
  GI50: 15.4 µM (inactive)
HCC 2998
  GI50: 11.2 µM (inactive)
HCT-15
  GI50: 3.06 µM
HL-60
  GI50: 8.87 µM (inactive)
HOP-18
  GI50: 14.9 µM (inactive)
HOP-62
  GI50: 13.2 µM (inactive)
HOP-92
  GI50: 7.33 µM (inactive)
HT-29
  GI50: 9.86 µM (inactive)
IGROV-1
  GI50: 18.2 µM (inactive)
K562
  GI50: 5.71 µM (inactive)
KM-20L2
  GI50: 8.83 µM (inactive)
KM12
  GI50: 10.6 µM (inactive)
LOX IMVI
  GI50: 5.4 µM (inactive)
LXFL 529
  GI50: 9.82 µM (inactive)
M14
  GI50: 13.7 µM (inactive)
M19-MEL
  GI50: 15.1 µM (inactive)
MOLT-4
  GI50: 3.98 µM (inactive)
Malme-3M
  GI50: 12.7 µM (inactive)
NCI-H23
  GI50: 13.3 µM (inactive)
NCI-H460
  GI50: 4.56 µM (inactive)
NCI-H522
  GI50: 6.34 µM (inactive)
OVCAR-3
  GI50: 4.88 µM (inactive)
OVCAR-4
  GI50: 19.5 µM (inactive)
OVCAR-5
  GI50: 10.7 µM (inactive)
OVCAR-8
  GI50: 12.6 µM (inactive)
RPMI-8226
  GI50: 4.65 µM (inactive)
RXF 393
  GI50: 16 µM (inactive)
SF-268
  GI50: 6.79 µM (inactive)
SF-295
  GI50: 6.52 µM (inactive)
SF-539
  GI50: 12.6 µM (inactive)
SK-MEL-28
  GI50: 11.9 µM (inactive)
SK-MEL-2
  GI50: 10.3 µM (inactive)
SK-MEL-5
  GI50: 7.13 µM (inactive)
SK-OV-3
  GI50: 22.2 µM (inactive)
SN12C
  GI50: 11.4 µM (inactive)
SNB-19
  GI50: 23.5 µM (inactive)
SNB-75
  GI50: 12.1 µM (inactive)
SW-620
  GI50: 15.8 µM (inactive)
TK-10
  GI50: 23.2 µM (inactive)
U-251
  GI50: 8.17 µM (inactive)
UACC-257
  GI50: 14.3 µM (inactive)
UACC-62
  GI50: 10.4 µM (inactive)
UO-31
  GI50: 13.4 µM (inactive)

## CC(=O)c1ccc(NC(=O)/C(=N\NC(N)=O)C(C#N)CC(C)(C)C=O)cc1 (stereo not given)
A498
  GI50: > 100 µM (inactive)
A549
  GI50: > 100 µM (inactive)
ACHN
  GI50: > 100 µM (inactive)
CAKI-1
  GI50: > 100 µM (inactive)
CCRF-CEM
  GI50: > 100 µM (inactive)
COLO 205
  GI50: > 100 µM (inactive)
DLD-1
  GI50: > 100 µM (inactive)
DMS-114
  GI50: > 100 µM (inactive)
DMS-273
  GI50: > 100 µM (inactive)
EKVX
  GI50: > 100 µM (inactive)
HCC 2998
  GI50: > 100 µM (inactive)
HCT-116
  GI50: > 100 µM (inactive)
HCT-15
  GI50: > 100 µM
HL-60
  GI50: > 100 µM (inactive)
HOP-62
  GI50: > 100 µM (inactive)
HOP-92
  GI50: > 100 µM (inactive)
HT-29
  GI50: > 100 µM (inactive)
IGROV-1
  GI50: > 100 µM (inactive)
K562
  GI50: > 100 µM (inactive)
KM-20L2
  GI50: > 100 µM (inactive)
KM12
  GI50: > 100 µM (inactive)
LOX IMVI
  GI50: > 100 µM (inactive)
LXFL 529
  GI50: > 100 µM (inactive)
M14
  GI50: > 100 µM (inactive)
M19-MEL
  GI50: > 100 µM (inactive)
MOLT-4
  GI50: > 100 µM (inactive)
NCI-H226
  GI50: > 100 µM (inactive)
NCI-H23
  GI50: > 100 µM (inactive)
NCI-H460
  GI50: > 100 µM (inactive)
NCI-H522
  GI50: > 100 µM (inactive)
OVCAR-4
  GI50: > 100 µM (inactive)
OVCAR-5
  GI50: > 100 µM (inactive)
OVCAR-8
  GI50: > 100 µM (inactive)
RPMI-8226
  GI50: > 100 µM (inactive)
RXF 393
  GI50: > 100 µM (inactive)
SF-268
  GI50: > 100 µM (inactive)
SF-295
  GI50: > 100 µM (inactive)
SF-539
  GI50: > 100 µM (inactive)
SK-MEL-28
  GI50: > 100 µM (inactive)
SK-MEL-2
  GI50: > 100 µM (inactive)
SK-MEL-5
  GI50: > 100 µM (inactive)
SK-OV-3
  GI50: > 100 µM (inactive)
SN12C
  GI50: > 100 µM (inactive)
SNB-19
  GI50: > 100 µM (inactive)
SNB-75
  GI50: > 100 µM (inactive)
SNB-78
  GI50: > 100 µM (inactive)
SR
  GI50: > 100 µM (inactive)
SW-620
  GI50: > 100 µM (inactive)
TK-10
  GI50: > 100 µM (inactive)
U-251
  GI50: > 100 µM (inactive)
UACC-257
  GI50: > 100 µM (inactive)
UACC-62
  GI50: > 100 µM (inactive)
UO-31
  GI50: > 100 µM (inactive)
XF498
  GI50: > 100 µM (inactive)
